Consider five compounds from patent US20190380937A1, “PROCESS FOR DEPIGMENTING KERATIN MATERIALS USING THIOPYRIDINONE COMPOUNDS” (L'OREAL, priority 2015, published 2019).

Read-outs that look alike come from different tables or passages of the source.

The subject of assay [1] is pigmented reconstructed epidermis. Put plainly: Test on pigmented reconstructed epidermis samples (melanin quantified by image analysis). The note with it: pValue<0.05, control DMSO. It is filed as cell-based, human. The protocol: […] EP 1 878 790). The control is DMSO. The melanin was quantified by image analysis on histological slices after staining with Fontana Masson dye. Each sample of coloured epidermis is photographed over its entire length using a camera connected to a microscope. The melanin is thresholded and the number of melanin pixels is measured in each field using automated image analysis software. A non-parametric statistical test is performed in order to determine the significance of the measurements (Mann-Whitney test).
The pigmented reconstructed epidermis standard study model was published by:
Regnier M, Duval C, Galey J B, Philippe M, Lagrange A, Tuloup R, Schmidt R, Cellular and Molecular Biology, 1999, 45, 7, 969-980: “Keratinocyte-Melanocyte co-cultures and pigmented reconstructed human epidermis: models to study modulation of melanogenesis”.

In a further assay the test system is normal human melanocytes. Put plainly: Depigmenting activity (reduction of melanin production) in normal human melanocytes in vitro. It counts as cell-based. The settings on record: Melanocyte, read-out: IC50 (concentration at which 50% decrease in melanin synthesis is achieved). The protocol: The measurement of the depigmenting activity (reduction of melanin production) of compounds of formula (I) was carried out by assaying normal human melanocytes in vitro as follows.
First of all, normal human melanocytes are cultured and dispensed into 384 wells. After 24 hours, the culture medium was replaced with a medium containing compounds of formula (I) to be evaluated. The cells were incubated for 72 hours before measuring the final optical density, which measures the amount of melanin produced by the melanocytes. A dose-effect is performed using a wide concentration range of the compounds evaluated. Thus, by making the concentrations and the melanin measurements correspond, it is possible to determine an IC50 in μM: concentration at which 50% decrease in melanin synthesis is achieved. The highest concentration used in the test is 200 μM.

Where [2] appears, read: Homo sapiens, another campaign, comparison with closest prior art compound of FR 2 968 661.
The mark [3] stands for this setting: normal human melanocytes, 72 hours incubation, optical density, highest concentration 200 μM.

Take `CCOC(=O)CNC(=O)c1ccc[nH]c1=S` [Compound 3, Ethyl N-[(2-thioxo-1,2-dihydropyridin-3-yl)carbonyl]glycinate]: the “depigmenting activity (melanin quantification, Mann-Whitney test)” value (shortened to “depigmenting activity”) in assay [1] (at 300 μM) is given as “Significant depigmenting activity”. In addition, the IC50 was 20.8 µM in the assay with normal human melanocytes (setting [2]) and 36.8 µM in the assay on normal human melanocytes (setting [3]).

Turning to `CCOC(=O)C(C)NC(=O)c1ccc[nH]c1=S` (stereo not shown) [reference compound], the IC50 with normal human melanocytes (setting [2]) amounted to 37.4 µM.

`CCOC(=O)CN(C)C(=O)c1ccc[nH]c1=S` [Compound 4, Ethyl N-methyl-N-[(2-thioxo-1,2-dihydropyridin-3-yl)carbonyl]glycinate]: in assay [1] (at 300 μM), the “depigmenting activity” value is listed as “Significant depigmenting activity”. The IC50 in the assay with normal human melanocytes (setting [3]) was found to be 67.6 µM.

Consider `CN(CC(=O)O)C(=O)c1ccc[nH]c1=S` [Compound 2, N-methyl-N-[(2-thioxo-1,2-dihydropyridin-3-yl)carbonyl]glycine], for which, in assay [1] (at 100 μM), the “depigmenting activity” value is on record as “Significant depigmenting activity”. Also, in the assay with normal human melanocytes (setting [3]), the IC50 worked out at 5.27 µM.

In the case of `O=C(O)CNC(=O)c1ccc[nH]c1=S` [Compound 1, N-[(2-thioxo-1,2-dihydropyridin-3-yl)carbonyl]glycine], in assay [1] (at 100 μM), the “depigmenting activity” value is on record as “Significant depigmenting activity”. In the assay on normal human melanocytes (setting [3]), the IC50 was 11.4 µM.
